Here are results for ten molecules from US12492188B2, “1H-benzo[D]imidazole derivatives as TLR9 inhibitors for the treatment of fibrosis” (BRISTOL-MYERS SQUIBB COMPANY, priority 2020, dated 2025).

Format in all cases: cell-based
One test concerns the target T1, human TLR9 (Homo sapiens, UniProt Q9NR96).
T1 construct: host or cells: HEK-Blue cells (HEK293-derived reporter line)
T1 sequence (Q9NR96 26-1032): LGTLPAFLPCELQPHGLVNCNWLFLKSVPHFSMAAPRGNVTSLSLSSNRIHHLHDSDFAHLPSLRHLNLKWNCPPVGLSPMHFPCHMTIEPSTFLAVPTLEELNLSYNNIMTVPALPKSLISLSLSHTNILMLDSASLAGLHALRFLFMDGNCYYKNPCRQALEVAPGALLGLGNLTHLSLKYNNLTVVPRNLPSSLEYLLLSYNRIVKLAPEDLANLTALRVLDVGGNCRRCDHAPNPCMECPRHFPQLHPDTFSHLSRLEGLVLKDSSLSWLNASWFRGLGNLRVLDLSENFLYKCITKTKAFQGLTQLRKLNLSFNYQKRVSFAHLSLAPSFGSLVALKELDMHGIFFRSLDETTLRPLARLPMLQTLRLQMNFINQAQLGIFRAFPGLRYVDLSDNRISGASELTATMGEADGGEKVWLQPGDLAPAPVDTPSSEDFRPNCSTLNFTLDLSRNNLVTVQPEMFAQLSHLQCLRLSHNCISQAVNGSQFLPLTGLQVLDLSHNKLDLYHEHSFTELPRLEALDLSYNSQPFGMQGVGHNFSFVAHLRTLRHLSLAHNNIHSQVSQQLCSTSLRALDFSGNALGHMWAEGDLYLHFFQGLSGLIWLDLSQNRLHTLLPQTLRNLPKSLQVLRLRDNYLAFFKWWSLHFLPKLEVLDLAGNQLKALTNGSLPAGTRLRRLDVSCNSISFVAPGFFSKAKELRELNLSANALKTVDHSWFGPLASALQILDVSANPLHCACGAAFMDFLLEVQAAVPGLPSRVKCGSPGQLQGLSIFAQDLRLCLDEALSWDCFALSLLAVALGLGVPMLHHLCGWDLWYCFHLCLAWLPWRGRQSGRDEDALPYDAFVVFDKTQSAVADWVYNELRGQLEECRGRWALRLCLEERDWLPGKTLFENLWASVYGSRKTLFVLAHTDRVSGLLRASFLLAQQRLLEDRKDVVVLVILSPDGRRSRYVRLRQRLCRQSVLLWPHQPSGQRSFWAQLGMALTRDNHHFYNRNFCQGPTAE
Nature of the test: TLR9 inhibition reporter assay (HEK-Blue cells, secreted embryonic alkaline phosphatase reporter). The essentials:
(§1)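 HEK-Blue cells expressing human TLR7, TLR8 or TLR9 with an NF-κB/AP-1-driven SEAP reporter were pretreated with compound (0.05 nM–50 μM final) for 30 min at room temperature. Agonists were gardiquimod 7.5 μM for TLR7, R848 15.9 μM for TLR8 and ODN2006 5 nM for TLR9. SEAP was read after 22 h at 37 °C, and inhibition was calculated relative to agonist-plus-DMSO and known-inhibitor controls.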
A general note: A reporter such as luciferase makes a cellular process visible.

In the next test the target is T2, human TLR7 (Homo sapiens, UniProt Q9NYK1).
T2 construct: host or cells: HEK-Blue cells (HEK293-derived reporter line)
T2 sequence (Q9NYK1 27-1049): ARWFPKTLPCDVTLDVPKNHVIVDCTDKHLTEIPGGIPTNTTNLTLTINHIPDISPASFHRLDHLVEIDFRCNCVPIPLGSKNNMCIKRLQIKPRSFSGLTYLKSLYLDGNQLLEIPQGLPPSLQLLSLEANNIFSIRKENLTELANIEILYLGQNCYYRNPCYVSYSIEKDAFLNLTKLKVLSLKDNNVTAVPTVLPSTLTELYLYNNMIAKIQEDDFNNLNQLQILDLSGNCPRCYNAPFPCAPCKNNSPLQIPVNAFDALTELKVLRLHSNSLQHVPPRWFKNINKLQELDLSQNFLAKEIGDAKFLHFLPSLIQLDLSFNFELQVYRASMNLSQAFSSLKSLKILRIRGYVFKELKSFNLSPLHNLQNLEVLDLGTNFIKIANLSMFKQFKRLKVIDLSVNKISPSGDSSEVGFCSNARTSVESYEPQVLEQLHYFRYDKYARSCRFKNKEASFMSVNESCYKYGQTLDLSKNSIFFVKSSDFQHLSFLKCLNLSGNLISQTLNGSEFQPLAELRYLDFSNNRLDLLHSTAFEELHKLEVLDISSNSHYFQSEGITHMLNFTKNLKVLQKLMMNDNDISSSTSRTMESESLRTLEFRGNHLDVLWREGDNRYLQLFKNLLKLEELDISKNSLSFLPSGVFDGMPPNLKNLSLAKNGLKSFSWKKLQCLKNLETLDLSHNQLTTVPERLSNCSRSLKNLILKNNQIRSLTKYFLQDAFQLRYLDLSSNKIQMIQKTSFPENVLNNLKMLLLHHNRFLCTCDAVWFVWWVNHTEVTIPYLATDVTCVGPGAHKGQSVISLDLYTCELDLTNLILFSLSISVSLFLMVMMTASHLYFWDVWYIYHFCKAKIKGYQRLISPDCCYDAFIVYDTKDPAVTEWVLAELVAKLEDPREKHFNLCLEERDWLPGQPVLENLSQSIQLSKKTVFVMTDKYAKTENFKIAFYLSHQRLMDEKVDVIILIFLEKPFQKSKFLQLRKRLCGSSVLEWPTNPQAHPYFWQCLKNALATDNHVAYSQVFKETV
Briefly: TLR7 inhibition reporter assay (HEK-Blue cells, secreted embryonic alkaline phosphatase reporter). The conditions noted are these: HEK-Blue cells overexpressing human TLR7, stimulated with gardiquimod 7.5 μM; read-out: TLR 7 IC50. The gist of the method: as §1

The next test has as its target T3, human TLR8 (Homo sapiens, UniProt Q9NR97).
T3 construct: host or cells: HEK-Blue cells (HEK293-derived reporter line)
T3 sequence (Q9NR97 27-1041): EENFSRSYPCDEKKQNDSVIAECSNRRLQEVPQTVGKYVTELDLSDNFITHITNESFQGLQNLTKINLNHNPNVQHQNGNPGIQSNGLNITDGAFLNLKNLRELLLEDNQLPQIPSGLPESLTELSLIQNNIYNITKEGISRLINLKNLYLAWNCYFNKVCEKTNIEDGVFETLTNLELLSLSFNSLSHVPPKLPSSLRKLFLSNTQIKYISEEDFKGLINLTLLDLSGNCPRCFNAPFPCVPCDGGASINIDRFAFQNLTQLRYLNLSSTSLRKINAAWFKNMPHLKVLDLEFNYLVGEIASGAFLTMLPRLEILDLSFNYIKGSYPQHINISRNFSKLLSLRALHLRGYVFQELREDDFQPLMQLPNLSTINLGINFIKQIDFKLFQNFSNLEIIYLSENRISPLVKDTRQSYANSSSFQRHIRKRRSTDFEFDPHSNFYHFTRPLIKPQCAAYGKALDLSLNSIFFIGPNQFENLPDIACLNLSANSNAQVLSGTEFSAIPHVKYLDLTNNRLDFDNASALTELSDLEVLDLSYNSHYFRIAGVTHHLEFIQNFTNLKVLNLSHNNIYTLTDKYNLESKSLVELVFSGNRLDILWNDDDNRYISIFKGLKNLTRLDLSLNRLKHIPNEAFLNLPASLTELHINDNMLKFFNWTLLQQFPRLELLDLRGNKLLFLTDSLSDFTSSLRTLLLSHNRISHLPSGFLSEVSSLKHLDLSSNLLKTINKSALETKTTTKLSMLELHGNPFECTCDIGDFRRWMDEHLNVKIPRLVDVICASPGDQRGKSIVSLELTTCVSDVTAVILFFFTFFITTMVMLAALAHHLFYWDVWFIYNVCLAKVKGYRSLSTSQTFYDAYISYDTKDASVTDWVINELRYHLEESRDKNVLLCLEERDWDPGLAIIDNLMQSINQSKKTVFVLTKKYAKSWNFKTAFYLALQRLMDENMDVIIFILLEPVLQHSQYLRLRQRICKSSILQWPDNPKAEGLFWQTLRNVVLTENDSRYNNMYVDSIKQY
Nature of the test: TLR8 inhibition reporter assay (HEK-Blue cells, secreted embryonic alkaline phosphatase reporter). The conditions noted are these: HEK-Blue cells overexpressing human TLR8, stimulated with R848 15.9 μM; read-out: TLR 8 IC50. The gist of the method:
as §1

Setting [1] is: HEK-Blue cells overexpressing human TLR9, stimulated with ODN2006 5 nM, read-out: TLR 9 IC50.
[2] abbreviates: HEK-Blue cells overexpressing human TLR9, stimulated with ODN2006 5 nM, 22 hour incubation, reporter readout.

SMILES strings stand for the structures. Where two headings read alike, the source gives them in different places.

One may read the IC50 as the midpoint of a concentration-inhibition curve. As for `COCCN1C2CCC1CC(N1CCC(c3cc4c(cc3F)nc(-c3ccc(S(C)(=O)=O)cc3)n4C)CC1)C2` (single isomer, unassigned) [Example 239, 5-fluoro-6-(1-(8-(2-methoxyethyl)-8-azabicyclo[3.2.1]octan-3-yl)piperidin-4-yl)-1-methyl-2-(4-(methylsulfonyl)phenyl)-1H-benzo[d]imidazole], the IC50 against human TLR9 is 290 nM; on human TLR9 (setting [1]), 290 nM; at human TLR7, not below 51200 nM; at human TLR8, more than 50000 nM.

With `COCCN1CCCC(N2CCC(c3cc(F)c4nc(-c5ccc(S(C)(=O)=O)cc5)n(C)c4c3)CC2)CC1` (single isomer, unassigned) [Example 302, 4-fluoro-6-(1-(1-(2-methoxyethyl)azepan-4-yl)piperidin-4-yl)-1-methyl-2-(4-(methylsulfonyl)phenyl)-1H-benzo[d]imidazole], the IC50 at human TLR9 (setting [1]) is 48 nM; against human TLR9 (HEK-Blue human TLR9 reporter cells), 48 nM; at human TLR7, 1900 nM; on human TLR8, more than 50000 nM.

In the case of `CC(C)CN1CCC(N2CCC(c3cc4c(cc3F)nc(-c3ccc(S(C)(=O)=O)cc3)n4C)CC2)CC1` [Example 221, 5-fluoro-6-(1′-isobutyl-[1,4′-bipiperidin]-4-yl)-1-methyl-2-(4-(methylsulfonyl)phenyl)-1H-benzo[d]imidazole], the IC50 is 350 nM against human TLR9, 354 nM on human TLR9 (setting [1]), 7800 nM at human TLR7 and more than 50000 nM on human TLR8.

Turning to `Cn1c(-c2ccc(S(C)(=O)=O)cc2)nc2cc(C3CCN(C4CC5CCC(C4)N5C4CCC4)CC3)c(F)cc21` (centres unmarked) [Example 251, 5-(1-(8-cyclobutyl-8-azabicyclo[3.2.1]octan-3-yl)piperidin-4-yl)-6-fluoro-1-methyl-2-(4-(methylsulfonyl)phenyl)-1H-benzo[d]imidazole], the IC50 at human TLR9 was 71 nM; on human TLR9 (setting [1]) it was 71 nM; at human TLR7, 19500 nM; on human TLR8 it was more than 50000 nM.

Take `CS(=O)(=O)c1ccc(-c2nc3ccc(C4CCN(C5CCN(C6COC6)CC5)CC4)c(F)c3[nH]2)cc1` [Example 181, 7-fluoro-2-(4-(methylsulfonyl)phenyl)-6-(1′-(oxetan-3-yl)-[1,4′-bipiperidin]-4-yl)-1H-benzo[d]imidazole]: the IC50 against human TLR9 was 640 nM; at human TLR9 (setting [1]), 641 nM; at human TLR7, more than 50000 nM; on human TLR8 it was more than 50000 nM.

Regarding `CN(C)C1CCN(Cc2ccc(-c3ccc4nc(-c5ccc(S(C)(=O)=O)cc5F)n(C)c4c3)cc2)CC1` [Example 380, 1-(4-(2-(2-fluoro-4-(methylsulfonyl)phenyl)-1-methyl-1H-benzo[d]imidazol-6-yl)benzyl)-N,N-dimethylpiperidin-4-amine], the IC50 on human TLR9 (setting [2]) was 174 nM; on human TLR9 (setting [1]), 174 nM; at human TLR7 it was 1300 nM; on human TLR8 it was 300 nM.

As to `Cc1cc(C2CCN(C3CC4CCC(C3)N4CC(C)C)CC2)cc2c1nc(-c1ccc(S(C)(=O)=O)cc1)n2C` (centres unmarked) [Example 118, 6-(1-(8-isobutyl-8-azabicyclo[3.2.1]octan-3-yl)piperidin-4-yl)-1,4-dimethyl-2-(4-(methylsulfonyl)phenyl)-1H-benzo[d]imidazole], the IC50 at human TLR9 (setting [2]) is 120 nM; on human TLR9 (setting [1]) it was 116 nM; at human TLR7 it was 19200 nM; at human TLR8 it was more than 25000 nM.

Consider `COc1ccc(-c2nc3c(C)cc(C4C[C@H]5CC[C@@H](C4)N5C4CCN(C(C)C)CC4)cc3n2C)cc1OC` (mixture of isomers) [Example 21, 2-(3,4-dimethoxyphenyl)-6-(8-(1-isopropylpiperidin-4-yl)-8-azabicyclo[3.2.1]octan-3-yl)-1,4-dimethyl-1H-benzo[d]imidazole], for which the results for the IC50 against human TLR9 (setting [2]), on human TLR7 and on human TLR8 were 24 nM, 2600 nM and more than 50000 nM, respectively.

With `COc1ccc(-c2nc3cc(C4CCN(C5CCN(CC(C)C)CC5)CC4)c(C(F)(F)F)cc3[nH]2)cc1OC` [Example 42, 2-(3,4-dimethoxyphenyl)-5-(1′-isobutyl-[1,4′-bipiperidin]-4-yl)-6-(trifluoromethyl)-1H-benzo[d]imidazole], the 50% inhibitory concentration (IC50) against human TLR9 (setting [2]) was 260 nM; on human TLR9 (setting [1]), 255 nM; at human TLR7 it was 32000 nM; on human TLR8, more than 50000 nM.

Consider `CC(C)N1CCC(N2CCC(c3cc(F)c4nc(-c5ccc(S(C)(=O)=O)cc5)n(C)c4c3)CC2)CC1` [Example 105, 4-fluoro-6-(1′-isopropyl-[1,4′-bipiperidin]-4-yl)-1-methyl-2-(4-(methylsulfonyl)phenyl)-1H-benzo[d]imidazole], for which the IC50 against human TLR9 (setting [2]) was 95 nM; on human TLR7, 25500 nM; at human TLR8 it was more than 50000 nM.
